Data published in the NIST ThermoML archive (doi:10.1016/j.jct.2015.08.014).
± gives the expanded uncertainty stated by the source.

Assay: xn = mol fraction of the nth substance listed
Settings: 100 kPa, Liquid; for electrical conductivity: Alternating current cell with electrodes; for mass density: Vibrating tube method; for viscosity: Capillary tube (Ostwald / Ubbelohde) method

CCCC[N+]1(C)CCCC1.N#CN=C=[N-] [1-butyl-1-methylpyrrolidinium dicyanamide] + O=C1CCCO1
Settings | electrical conductivity [S/m]
313.15 K, Frequency=0.00694444 MHz, x1 = 0.4985 | 2.88 ± 0.029
313.15 K, Frequency=0.00694444 MHz, x1 = 0.6954 | 2.43 ± 0.025
313.15 K, Frequency=0.00694444 MHz, x1 = 0.9013 | 2.09 ± 0.021
313.15 K, Frequency=0.00694444 MHz, x1 = 1 | 2 ± 0.02
313.15 K, Frequency=0.0075 MHz, x1 = 0.0463 | 1.79 ± 0.032
313.15 K, Frequency=0.0075 MHz, x1 = 0.0987 | 2.73 ± 0.034
313.15 K, Frequency=0.0075 MHz, x1 = 0.1449 | 3.13 ± 0.033
313.15 K, Frequency=0.0075 MHz, x1 = 0.1859 | 3.37 ± 0.034
313.15 K, Frequency=0.0075 MHz, x1 = 0.2493 | 3.36 ± 0.034
313.15 K, Frequency=0.0075 MHz, x1 = 0.3029 | 3.321 ± 0.033
313.15 K, Frequency=0.0075 MHz, x1 = 0.3845 | 3.16 ± 0.032
313.15 K, Frequency=0.0075 MHz, x1 = 0.4985 | 2.88 ± 0.029
313.15 K, Frequency=0.0075 MHz, x1 = 0.6954 | 2.43 ± 0.025
313.15 K, Frequency=0.0075 MHz, x1 = 0.9013 | 2.09 ± 0.021
313.15 K, Frequency=0.0075 MHz, x1 = 1 | 2 ± 0.02
313.15 K, Frequency=0.008 MHz, x1 = 0.0463 | 1.79 ± 0.032
313.15 K, Frequency=0.008 MHz, x1 = 0.0987 | 2.73 ± 0.034
313.15 K, Frequency=0.008 MHz, x1 = 0.1449 | 3.13 ± 0.033
313.15 K, Frequency=0.008 MHz, x1 = 0.1859 | 3.37 ± 0.034
313.15 K, Frequency=0.008 MHz, x1 = 0.2493 | 3.36 ± 0.034
313.15 K, Frequency=0.008 MHz, x1 = 0.3029 | 3.321 ± 0.033
313.15 K, Frequency=0.008 MHz, x1 = 0.3845 | 3.16 ± 0.032
313.15 K, Frequency=0.008 MHz, x1 = 0.4985 | 2.88 ± 0.029
313.15 K, Frequency=0.008 MHz, x1 = 0.6954 | 2.43 ± 0.025
313.15 K, Frequency=0.008 MHz, x1 = 0.9013 | 2.09 ± 0.021
313.15 K, Frequency=0.008 MHz, x1 = 1 | 2 ± 0.02
313.15 K, Frequency=0.00857143 MHz, x1 = 0.0463 | 1.79 ± 0.032
313.15 K, Frequency=0.00857143 MHz, x1 = 0.0987 | 2.73 ± 0.034
313.15 K, Frequency=0.00857143 MHz, x1 = 0.1449 | 3.13 ± 0.033
313.15 K, Frequency=0.00857143 MHz, x1 = 0.1859 | 3.37 ± 0.034
313.15 K, Frequency=0.00857143 MHz, x1 = 0.2493 | 3.36 ± 0.034
313.15 K, Frequency=0.00857143 MHz, x1 = 0.3029 | 3.321 ± 0.033
313.15 K, Frequency=0.00857143 MHz, x1 = 0.3845 | 3.16 ± 0.032
313.15 K, Frequency=0.00857143 MHz, x1 = 0.4985 | 2.88 ± 0.029
313.15 K, Frequency=0.00857143 MHz, x1 = 0.6954 | 2.43 ± 0.025
313.15 K, Frequency=0.00857143 MHz, x1 = 0.9013 | 2.09 ± 0.021
313.15 K, Frequency=0.00857143 MHz, x1 = 1 | 2 ± 0.02
313.15 K, Frequency=0.00892857 MHz, x1 = 0.0463 | 1.79 ± 0.032
313.15 K, Frequency=0.00892857 MHz, x1 = 0.0987 | 2.73 ± 0.034
313.15 K, Frequency=0.00892857 MHz, x1 = 0.1449 | 3.13 ± 0.033
313.15 K, Frequency=0.00892857 MHz, x1 = 0.1859 | 3.37 ± 0.034
313.15 K, Frequency=0.00892857 MHz, x1 = 0.2493 | 3.36 ± 0.034
313.15 K, Frequency=0.00892857 MHz, x1 = 0.3029 | 3.321 ± 0.033
313.15 K, Frequency=0.00892857 MHz, x1 = 0.3845 | 3.16 ± 0.032
313.15 K, Frequency=0.00892857 MHz, x1 = 0.4985 | 2.88 ± 0.029
313.15 K, Frequency=0.00892857 MHz, x1 = 0.6954 | 2.43 ± 0.025
313.15 K, Frequency=0.00892857 MHz, x1 = 0.9013 | 2.09 ± 0.021
313.15 K, Frequency=0.00892857 MHz, x1 = 1 | 2 ± 0.02
313.15 K, Frequency=0.00961538 MHz, x1 = 0.0463 | 1.79 ± 0.032
313.15 K, Frequency=0.00961538 MHz, x1 = 0.0987 | 2.73 ± 0.034
313.15 K, Frequency=0.00961538 MHz, x1 = 0.1449 | 3.13 ± 0.033
313.15 K, Frequency=0.00961538 MHz, x1 = 0.1859 | 3.37 ± 0.034
313.15 K, Frequency=0.00961538 MHz, x1 = 0.2493 | 3.36 ± 0.034
313.15 K, Frequency=0.00961538 MHz, x1 = 0.3029 | 3.322 ± 0.033
313.15 K, Frequency=0.00961538 MHz, x1 = 0.3845 | 3.16 ± 0.032
313.15 K, Frequency=0.00961538 MHz, x1 = 0.4985 | 2.88 ± 0.029
313.15 K, Frequency=0.00961538 MHz, x1 = 0.6954 | 2.43 ± 0.025
313.15 K, Frequency=0.00961538 MHz, x1 = 0.9013 | 2.09 ± 0.021
313.15 K, Frequency=0.00961538 MHz, x1 = 1 | 2 ± 0.02
313.15 K, Frequency=0.01 MHz, x1 = 0.0463 | 1.79 ± 0.032
313.15 K, Frequency=0.01 MHz, x1 = 0.0987 | 2.73 ± 0.034
313.15 K, Frequency=0.01 MHz, x1 = 0.1449 | 3.13 ± 0.033
313.15 K, Frequency=0.01 MHz, x1 = 0.1859 | 3.37 ± 0.034
313.15 K, Frequency=0.01 MHz, x1 = 0.2493 | 3.36 ± 0.034
313.15 K, Frequency=0.01 MHz, x1 = 0.3029 | 3.322 ± 0.033
313.15 K, Frequency=0.01 MHz, x1 = 0.3845 | 3.16 ± 0.032
313.15 K, Frequency=0.01 MHz, x1 = 0.4985 | 2.88 ± 0.029
313.15 K, Frequency=0.01 MHz, x1 = 0.6954 | 2.43 ± 0.025
313.15 K, Frequency=0.01 MHz, x1 = 0.9013 | 2.09 ± 0.021
313.15 K, Frequency=0.01 MHz, x1 = 1 | 2 ± 0.02
323.15 K, Frequency=0.0005 MHz, x1 = 0.0463 | 1.99 ± 0.036
323.15 K, Frequency=0.0005 MHz, x1 = 0.0987 | 3.06 ± 0.039
323.15 K, Frequency=0.0005 MHz, x1 = 0.1449 | 3.56 ± 0.038
323.15 K, Frequency=0.0005 MHz, x1 = 0.1859 | 3.816 ± 0.038
323.15 K, Frequency=0.0005 MHz, x1 = 0.2493 | 3.88 ± 0.039
323.15 K, Frequency=0.0005 MHz, x1 = 0.3029 | 3.85 ± 0.039
323.15 K, Frequency=0.0005 MHz, x1 = 0.3845 | 3.726 ± 0.037
323.15 K, Frequency=0.0005 MHz, x1 = 0.4985 | 3.45 ± 0.035
323.15 K, Frequency=0.0005 MHz, x1 = 0.6954 | 2.99 ± 0.03
323.15 K, Frequency=0.0005 MHz, x1 = 0.9013 | 2.622 ± 0.026
323.15 K, Frequency=0.0005 MHz, x1 = 1 | 2.525 ± 0.025
323.15 K, Frequency=0.001 MHz, x1 = 0.0463 | 2 ± 0.036

Settings | electrical conductivity, 323.15 K [S/m] | mass density, 313.15 K [kg/m3] | viscosity, 323.15 K [mPa·s]
x1 = 0.0463 | 2.01 ± 0.037 | – | –
x1 = 0.0987 | 3.08 ± 0.039 | 1090.51 ± 8.7 | 1.87 ± 0.04
x1 = 0.1449 | 3.57 ± 0.038 | – | –
x1 = 0.1859 | 3.85 ± 0.039 | 1075.67 ± 8.6 | 2.58 ± 0.06
x1 = 0.2493 | 3.89 ± 0.039 | – | –
x1 = 0.3029 | 3.88 ± 0.039 | 1059.04 ± 8.5 | 3.77 ± 0.08
x1 = 0.3845 | 3.74 ± 0.038 | – | –
x1 = 0.4985 | 3.46 ± 0.035 | 1037.83 ± 8.3 | 6.36 ± 0.14
x1 = 0.6954 | 2.99 ± 0.03 | 1022.16 ± 8.2 | 9.69 ± 0.22
x1 = 0.9013 | 2.633 ± 0.026 | 1009.87 ± 8.1 | 13.92 ± 0.32
x1 = 1 | 2.529 ± 0.025 | 1005.06 ± 8.1 | 16.15 ± 0.37
